Test results published in patent publication US9598463B2, “Mucin hypersecretion inhibitors and methods of use” (BIOMARCK PHARMACEUTICALS, LTD., priority 2005, dated 2017).

Key:
HBE1 cells = test: PMA-induced mucin hypersecretion in human bronchial epithelial cells (air/liquid interface, MUC5A ELISA); format: cell-based; conditions: pretreatment with 25 μM peptide, then 0.5 μM PMA
Procedure: HBE1 is a papilloma virus-transformed human bronchial epithelial cell line capable of mucin secretion when cultured in air/liquid interface. HBE1 cells were cultured in the air/liquid interface as described previously (Li et al, J. Biol. Chem., volume 276, pp 40982-40990, 2001). Briefly, HBE1 cells were cultured in air/liquid interface by seeding an appropriate number of cells in 12-well Transwell clear culture inserts (Costar, Cambridge, Mass.) that were thinly coated with rat tail collagen, type I (Collaborative Biomedical, Bedford, Mass.). Cells were initially cultured submerged in medium in a humidified 95% air, 5% CO2 environment for 5-7 days until nearly confluent. At that time, the air/liquid interface was created by removing the apical medium and feeding cells basalaterally. Medium was renewed daily thereafter. Cells were cultured for an additional 14 days to allow full differentiation. The accumulated mucin at the apical surface of the cells was removed by washing with phosphate-buffered saline, pH 7.2. To collect the baseline mucin secretion, cells were incubated for 30 min with medium alone and secreted mucin in the apical medium was collected, and quantitated by ELISA. To determine the mucin hypersecretion induced by a mucin secretagogue, cells were exposed to medium containing 0.5 μM phorbol myristate acetate, (PMA) for 30 min. and mucin was collected and quantitated by ELISA. […] Six wells were used for each test peptides and for each control. Secreted mucin in the apical medium was collected and quantitated by sandwich ELISA method using alkaline phosphatase-conjugated mucin (MUC5A) specific antibody (Zymed Laboratories, San Francisco, Calif.).

[1] = tested on: ATP-induced mucin hypersecretion; test: Aerosolized Ac-peptide 106 on ATP-induced mucin hypersecretion in mouse model with goblet cell metaplasia; format: in vivo, BALB/c mice; conditions: aerosol
Procedure: The efficacy of aerosolized Ac-peptide 106 on mucin hypersecretion in a mouse model of asthma was determined at two concentrations. Briefly, 5- to 8 week old BALB/c mice were immunized weekly as described above in Example 1A for 3 weeks with ovalbumin. On Day 28 the mice were challenged with aerosolized 2.5% ovalbumin in normal saline for 30 minutes. Three days after ovalbumin challenge, each group of mice (n=2) was administered an aerosolized isotonic solution of Ac-peptide 106 at […] or 30 mM for 1 hour with an AeroMist CA-209 nebulizer. The mass median aerodynamic diameter of the aerosol particles was 1.49 um (range 0.4 to 4.7 urn). Given these concentrations of Ac-peptide 106 and this particle size, the calculated pulmonary deposition of Ac-peptide 106 was 0.38 mg/kg body weight and 1.1 mg/kg body weight, respectively.
Ac-peptide 106 administration was immediately followed by aerosol administration of the secretagogue adenosine triphosphate (ATP) ([…] in saline) for 5 minutes. The mice were sacrificed, and the lungs were harvested within 20 minutes. The lungs were rinsed with saline, fixed with paraformaldehyde, embedded in paraffin, and sectioned. The sections were quantitatively analyzed for the presence of mucin by quantitative immunohistochemistry according to the method of Evans et al. (Am. J. Respir. Cell Mol. Biol. Vol. 31, pp 382-394, 2004).

[2] = Stability of test peptides in human BALF (LC/MS/MS, first order half-life); format: in vitro ADME; conditions: cerebrospinal or other body fluid, human BALF from COPD patients, 1st experiment, read-out: BALF t1/2 (1st exp.) (converted)
Procedure: (§1) Various test peptides in human plasma, human BALF, and CF patient mucus were analyzed to determine the susceptability of the test peptide to proteolysis in the biological fluids. […] The samples were analyzed either on the same day as received or stored at −20° C. and analyzed within the following two days.
Samples of BALF collected from COPD patients were obtained and frozen. The BALF samples were thawed, mixed together and centrifuged at 10,000×g for 10 min at 4-8° C. The supernatant (0.9 mL) was spiked with 0.1 mL of 0.5 mg/mL solution of the peptide in 75 mM sodium acetate buffer at pH 7.0 and processed and analyzed as described above.
(§2) All samples were analyzed using LC/MS/MS (MDS/SCIEX, API 4000 Model). Chromatography was performed using a Phenomenex Luna C18 column, while mass spectrometry was performed using positive ion electrospray ionization.
(§3) Calibration standards were analyzed by LCMS at concentrations of 0.100 μg/mL, 1.00 μg/mL, 10.0 μg/mL, and 100 μg/mL for each peptide, with the exception of the calibration standards for peptides myr-PEPTIDE 106, PEPTIDE 106, PEPTIDE 106-NH2, PEPTIDE 106, and cyclic peptide, cyc-PEPTIDE 106, in human mucus, which were analyzed at concentrations of 0.100 μg/mL, 1.00 μg/mL, 10.0 μg/mL, and 75 μg/mL. Standards were prepared in 1% human BALF, plasma, or mucus in 50/50 water/acetonitrile mixture containing 0.2% formic acid. The instrument response values for each set of standards were fit using a 1/(concentration)^2 linear least-squares line. Sample concentrations were calculated using the slope and intercept of this line. Concentrations outside of the calibration range were determined by extrapolating the calibration curve.
Duplicate calibration standards were analyzed at a concentration of 50 μg/mL for each peptide. The instrument response values for each set of standards were fit through an intercept of 0 using an unweighted, linear least-squares line. Sample concentrations were calculated using the slope and intercept of this line.
For the analysis of peptide concentration in BALF samples, one 50 μg/mL calibration standard prepared in a mixture of BALF, water, acetonitrile, and formic acid was analyzed with each sample set.
(§4) Watson fits the log transformed data with a least-squares line to determine parameters such as Cmax (maximum concentration), intercept, rate constant, slope, and T1/2 (half-life). The resulting kinetic parameters were based on the linear fit, not the actual concentration values.
(§5) Time-zero calibration standards in solution were not included as part of the kinetic profiles.

[3] = Stability of test peptides in human CF mucus (LC/MS/MS, first order half-life); format: in vitro ADME; conditions: cerebrospinal or other body fluid, pH 7, human CF mucus
Procedure: as §1
The frozen mucus (sputum) from a CF patient was thawed and mixed with 2 volumes of 75 mM sodium acetate buffer, pH 7 with the help of a glass tissue grinder, centrifuged at 10,000×g for 10 min at 4-8° C. The pellet was re-suspended in 1 volume of the acetate buffer and centrifuged. The two supernatants were combined and used as follows. The supernatant (450 μL) was spiked with 50 μL, of 0.5 mg/mL solution of the peptide in 75 mM sodium acetate buffer at pH 7.0 and processed and analyzed as described above.
as §2, §3, §4, §5

[4] = 1st experiment, read-out: Mucus t1/2 (1st exp.) (converted)
[5] = 2nd experiment, read-out: Mucus t1/2 (2nd exp.) (converted)

Row | Substance | Block of PMA-induced increase in mucin secretion (HBE1 cells) [%] | Inhibition of ATP-induced mucin hypersecretion ([1]; calculated pulmonary deposition 0.38 mg/kg body weight) [%] | Inhibition of ATP-induced mucin hypersecretion ([1]; calculated pulmonary deposition 1.1 mg/kg body weight) [%] | half-life [2] [min] | half-life [3, 4] [min] | half-life [3, 5] [min]
1 | Ac-GAQFSKTAAK-OH [Ac-peptide 106] | 100 | 30 | 67 | 113 | 33 | 28.2
2 | H-GAQFSKTAAK-OH [peptide 106, GAQFSKTAAK] |  |  |  | 113 | 13.8 | 22.2
